PubChem BioAssay (NCI)
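A five-concentration, 48-hour dose response in 96-well plates underlies each endpoint, interpolated linearly between surrounding concentrations. Here, GI50 denotes the concentration required for 50% inhibition of growth. The concentration for full growth arrest is given as TGI.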

Assays:
Assay in all cases: growth of human tumour cells (NCI), 48 h
[1] = system: HOP-62 NSCLC
[2] = system: RPMI-8226 leukemia
[3] = system: MCF7 breast
[4] = system: IGROV1 ovarian
[5] = system: SK-MEL-28 melanoma
[6] = system: MDA-MB-468 breast
[7] = system: NCI-H460 lung
[8] = system: U251 CNS
[9] = system: UACC-62 melanoma
[10] = system: SF-295 CNS
[11] = system: OVCAR-5 ovarian
[12] = system: SF-268 CNS
[13] = system: LOX IMVI melanoma
[14] = system: TK-10 renal
[15] = system: OVCAR-8 ovarian
[16] = system: OVCAR-4 ovarian
[17] = system: SR leukemia
[18] = system: HL-60(TB) leukemia
[19] = system: CCRF-CEM leukemia
[20] = system: UACC-257 melanoma
[21] = system: M14 melanoma
[22] = system: UO-31 renal
[23] = system: NCI-H522 lung
[24] = system: ACHN renal
[25] = system: MDA-MB-435
[26] = system: OVCAR-3 ovarian
[27] = system: PC-3 prostate
[28] = system: NCI-H23 lung
[29] = system: HCC-2998 colon
[30] = system: SNB-75 CNS
[31] = system: SF-539 CNS
[32] = system: A498 renal
[33] = system: SK-MEL-5 melanoma
[34] = system: HCT-116 colon
[35] = system: MOLT-4 leukemia
[36] = system: MDA-MB-231 breast
[37] = system: 786-0 renal
[38] = system: HT29 colon
[39] = system: COLO 205 colon
[40] = system: HOP-92 NSCLC
[41] = system: HCT-15 colon
[42] = system: CAKI-1 renal
[43] = system: K-562 leukemia
[44] = system: DU-145 prostate
[45] = system: SN12C renal
[46] = system: SK-OV-3 ovarian
[47] = system: HS 578T breast
[48] = system: BT-549 breast
[49] = system: RXF 393 renal
[50] = system: SNB-19 CNS
[51] = system: SW-620 colon
[52] = system: NCI-H226 lung
[53] = system: T-47D breast
[54] = system: A549 NSCLC
[55] = system: EKVX NSCLC
[56] = system: KM12 colon
[57] = system: MALME-3M melanoma

COc1ccc(C(SCCNCc2cc(N(C)C)ccn2)(c2ccccc2)c2ccccc2)cc1 showed a GI50 [1] of 4.34 µM, a TGI [1] of 19.8 µM and a GI50 [2] of 0.954 µM. It also gave a TGI [2] of 10 µM, a GI50 [3] of 0.322 µM and a TGI [3] of 11 µM. It also gave a GI50 [4] of 3.43 µM, a TGI [4] of 17.1 µM and a GI50 [5] of 5.6 µM. The TGI [5] was 18.7 µM, the GI50 [6] was 0.544 µM and the TGI [6] was 2.9 µM. It also gave a GI50 [7] of 2.93 µM, a TGI [7] of 12.5 µM and a GI50 [8] of 0.592 µM. The TGI [8] was 13.6 µM, the GI50 [9] was 4.22 µM and the TGI [9] was 16.6 µM. For the same compound, the GI50 [10] was 0.618 µM, the TGI [10] was 11.5 µM and the GI50 [11] was 3.07 µM. For the same compound, the TGI [11] was 11.9 µM, the GI50 [12] was 4.02 µM and the TGI [12] was 20.4 µM. The GI50 [13] was 2.04 µM, the TGI [13] was 11.4 µM and the GI50 [14] was 9.54 µM. For the same compound, the TGI [14] was 21.7 µM, the GI50 [15] was 1.87 µM and the TGI [15] was 18.1 µM. It also gave a GI50 [16] of 9.25 µM, a TGI [16] of 22.7 µM and a GI50 [17] of 0.566 µM. It also gave a TGI [17] of over 100 µM, a GI50 [18] of 2.11 µM and a TGI [18] of 5.28 µM. For the same compound, the GI50 [19] was 0.468 µM, the TGI [19] was 15.4 µM and the GI50 [20] was 5.71 µM. For the same compound, the TGI [20] was 19.8 µM, the GI50 [21] was 0.447 µM and the TGI [21] was 2.48 µM. It also gave a GI50 [22] of 3.78 µM, a TGI [22] of 17.5 µM and a GI50 [23] of 0.707 µM. For the same compound, the TGI [23] was 5.77 µM, the GI50 [24] was 2.48 µM and the TGI [24] was 18.5 µM. For the same compound, the GI50 [25] was 0.214 µM, the TGI [25] was 0.475 µM and the GI50 [26] was 2.53 µM. It also gave a TGI [26] of 12.4 µM, a GI50 [27] of 1.67 µM and a TGI [27] of 15 µM. For the same compound, the GI50 [28] was 3.12 µM, the TGI [28] was 13.1 µM and the GI50 [29] was 0.7 µM. For the same compound, the TGI [29] was 2.14 µM, the GI50 [30] was 2.86 µM and the TGI [30] was 13.6 µM. It also gave a GI50 [31] of 1.61 µM, a TGI [31] of 3.83 µM and a GI50 [32] of 15.6 µM. For the same compound, the TGI [32] was 30.1 µM, the GI50 [33] was 1.08 µM and the TGI [33] was 3.82 µM. For the same compound, the GI50 [34] was 0.324 µM, the TGI [34] was 10.5 µM and the GI50 [35] was 3.47 µM. For the same compound, the TGI [35] was 13.6 µM, the GI50 [36] was 1.48 µM and the TGI [36] was 4.8 µM. It also gave a GI50 [37] of 1.4 µM, a TGI [37] of 7.55 µM and a GI50 [38] of 2.25 µM. It also gave a TGI [38] of 5.66 µM, a GI50 [39] of 1.09 µM and a TGI [39] of 2.97 µM. For the same compound, the GI50 [40] was 2.16 µM, the TGI [40] was 11 µM and the GI50 [41] was 0.432 µM. For the same compound, the TGI [41] was 11.6 µM, the GI50 [42] was 3.54 µM and the TGI [42] was 17.6 µM. For the same compound, the GI50 [43] was 0.697 µM, the TGI [43] was 13.6 µM and the GI50 [44] was 3.5 µM. The TGI [44] was 12.8 µM, the GI50 [45] was 1.49 µM and the TGI [45] was 13.7 µM. It also gave a GI50 [46] of 3.57 µM, a TGI [46] of 15.9 µM and a GI50 [47] of 1.37 µM. The TGI [47] was 9.32 µM, the GI50 [48] was 1.92 µM and the TGI [48] was 6.03 µM. It also gave a GI50 [49] of 2.61 µM, a TGI [49] of 11.5 µM and a GI50 [50] of 3.48 µM. It also gave a TGI [50] of 15.3 µM, a GI50 [51] of 0.916 µM and a TGI [51] of 16.8 µM. For the same compound, the GI50 [52] was 4.45 µM, the TGI [52] was 17.8 µM and the GI50 [53] was 4.7 µM. It also gave a TGI [53] of 21.9 µM, a GI50 [54] of 3.79 µM and a TGI [54] of 20 µM. The GI50 [55] was 1.5 µM, the TGI [55] was 17.1 µM and the GI50 [56] was 3.66 µM. It also gave a TGI [56] of 16 µM, a GI50 [57] of 3.36 µM and a TGI [57] of 15.8 µM.
